Source: the NIST ThermoML archive (doi:10.1007/s10765-005-8096-3)
Numbers after ± are expanded uncertainties.

Experiment: refractive index (Na D-line) (dimensionless); xn = mol fraction of the nth substance listed
Details: 101 kPa, Liquid, Standard Abbe refractometry

CC(C)c1ccccc1 [isopropylbenzene] + CCCCOC(C)=O
refractive index
Details	293.15 K	298.15 K	303.15 K	308.15 K	313.15 K
x2 = 0.0521	1.48648 ± 0.00069	1.48385 ± 0.00069	1.48124 ± 0.00068	1.47872 ± 0.00069	1.47599 ± 0.00071
x2 = 0.0998	1.48203 ± 0.00069	1.47941 ± 0.00069	1.47677 ± 0.00068	1.47424 ± 0.00069	1.47156 ± 0.0007
x2 = 0.151	1.47724 ± 0.00069	1.47459 ± 0.00069	1.47198 ± 0.00068	1.46948 ± 0.00068	1.4668 ± 0.0007
x2 = 0.2043	1.47219 ± 0.00069	1.46954 ± 0.00069	1.46694 ± 0.00068	1.46442 ± 0.00068	1.46178 ± 0.00069
x2 = 0.2496	1.4679 ± 0.00069	1.46525 ± 0.00069	1.46266 ± 0.00068	1.46014 ± 0.00068	1.45753 ± 0.00069
x2 = 0.3036	1.46273 ± 0.00069	1.46014 ± 0.00068	1.45758 ± 0.00068	1.45505 ± 0.00068	1.45243 ± 0.00069
x2 = 0.3578	1.45755 ± 0.00068	1.45496 ± 0.00068	1.45242 ± 0.00068	1.44988 ± 0.00068	1.44725 ± 0.00069
x2 = 0.4021	1.45329 ± 0.00069	1.45068 ± 0.00068	1.44815 ± 0.00068	1.44562 ± 0.00068	1.44301 ± 0.00069
x2 = 0.4514	1.4485 ± 0.00068	1.44593 ± 0.00068	1.44338 ± 0.00068	1.44086 ± 0.00068	1.43827 ± 0.00069
x2 = 0.4994	1.44384 ± 0.00068	1.44127 ± 0.00068	1.43873 ± 0.00068	1.43623 ± 0.00068	1.43363 ± 0.00069
x2 = 0.555	1.43843 ± 0.00068	1.43587 ± 0.00068	1.43334 ± 0.00068	1.43083 ± 0.00068	1.42824 ± 0.00069
x2 = 0.6017	1.43384 ± 0.00068	1.4313 ± 0.00068	1.42878 ± 0.00067	1.42629 ± 0.00068	1.42372 ± 0.00069
x2 = 0.65	1.42906 ± 0.00067	1.42655 ± 0.00067	1.42403 ± 0.00067	1.42154 ± 0.00068	1.41898 ± 0.00068
x2 = 0.6996	1.42417 ± 0.00067	1.42165 ± 0.00067	1.41914 ± 0.00067	1.41673 ± 0.00067	1.41413 ± 0.00069
x2 = 0.7493	1.41919 ± 0.00067	1.4167 ± 0.00067	1.41421 ± 0.00067	1.41175 ± 0.00067	1.40924 ± 0.00068
x2 = 0.8007	1.4141 ± 0.00067	1.41161 ± 0.00067	1.40915 ± 0.00067	1.40668 ± 0.00067	1.40412 ± 0.00068
x2 = 0.8497	1.4092 ± 0.00067	1.40674 ± 0.00067	1.40425 ± 0.00067	1.4018 ± 0.00067	1.39927 ± 0.00068
x2 = 0.8992	1.40425 ± 0.00066	1.4018 ± 0.00067	1.39931 ± 0.00066	1.39691 ± 0.00067	1.39437 ± 0.00067
x2 = 0.95	1.39913 ± 0.00065	1.39675 ± 0.00066	1.39426 ± 0.00066	1.39185 ± 0.00066	1.3894 ± 0.0007
